Measurements taken from article PMC3397156 (Chembiochem, 2010).

Molecular target: T1, PatD (Prochloron didemni, UniProt Q52QI6)
T1 sequence (Q52QI6 1-784): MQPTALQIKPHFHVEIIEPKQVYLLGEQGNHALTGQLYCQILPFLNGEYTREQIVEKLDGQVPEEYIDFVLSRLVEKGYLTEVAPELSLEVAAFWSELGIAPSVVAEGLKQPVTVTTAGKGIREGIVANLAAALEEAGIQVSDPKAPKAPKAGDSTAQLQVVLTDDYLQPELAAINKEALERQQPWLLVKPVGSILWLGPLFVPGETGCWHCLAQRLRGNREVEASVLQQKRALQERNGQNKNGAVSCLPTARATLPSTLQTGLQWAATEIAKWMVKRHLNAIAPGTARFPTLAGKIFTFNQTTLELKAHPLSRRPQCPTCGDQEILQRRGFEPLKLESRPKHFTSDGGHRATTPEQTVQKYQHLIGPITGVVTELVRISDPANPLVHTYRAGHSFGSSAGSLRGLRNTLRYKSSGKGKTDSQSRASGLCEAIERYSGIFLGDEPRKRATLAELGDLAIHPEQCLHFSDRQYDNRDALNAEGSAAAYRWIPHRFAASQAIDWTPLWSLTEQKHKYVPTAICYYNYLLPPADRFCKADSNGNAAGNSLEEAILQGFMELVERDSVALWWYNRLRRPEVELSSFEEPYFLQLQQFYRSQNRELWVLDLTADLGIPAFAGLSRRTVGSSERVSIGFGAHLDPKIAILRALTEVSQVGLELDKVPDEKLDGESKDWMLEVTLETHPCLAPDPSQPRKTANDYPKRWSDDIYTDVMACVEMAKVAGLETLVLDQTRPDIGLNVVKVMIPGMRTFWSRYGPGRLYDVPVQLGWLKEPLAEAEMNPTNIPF
Details: ATP 100 μM, TruE2 2 μM, PatD 0.6 μM, MgCl2, DTT, 30 min

## Nc1ncnc2c1ncn2[C@@H]1O[C@H](COP(=O)(O)OP(=O)(O)OP(=O)(O)O)[C@@H](O)[C@H]1O [ATP]
  HPLC of ATP hydrolysis to ADP: ATP was shown to be hydrolyzed to ADP
